# Entries after “also recorded” stand apart in the source; their conditions may differ. Where two headings read alike, the source gives them in different places.
# B1: peanut agglutinin: lectin binding other sugars (protein, UniProt P02872 24-273, looked up)
# Galactose-binding lectin: AETVSFNFNSFSEGNPAINFQGDVTVLSNGNIQLTNLNKVNSVGRVLYAMPVRIWSSATGNVASFLTSFSFEMKDIKDYDPADGIIFFIAPEDTQIPAGSIGGGTLGVSDTKGAGHFVGVEFDTYSNSEYNDPPTDHVGIDVNSVDSVKTVPWNSVSGAVVKVTVIYDSSTKTLSVAVTNDNGDITTIAQVVDLKAKLPERVKFGFSASGSLGGRQIHLIRSWSFTSTLITTTRRSIDNNEKKIMNMASA
# Legend:
# [1] = tested on: human blood bacterium (HBB); assay: Resistance of HBB to detergents and disinfectants; assay type: cell-based; details: for resistance of HBB to detergent (lysis): 0.1%
# [2] = tested on: human blood bacterium (HBB); assay type: cell-based
# Description: Normally 1 ml of serum was added to 9 ml of medium. Larger flasks with a proportionately larger amount of serum and medium are used to produce bacteria in quantity. Modulators might be added to some flasks in 10× or higher concentration (corresponding to addition of 1 ml or less). When examining the effect of modulators, control flasks were prepared similarly without the addition of the modulator. Levels were observed microscopically (inverted phase microscope, observing the number of organisms per field crudely or by actual count) after incubation, typically at several points in time.
# When multiple comparisons were done at once, they were done in 12 well or 24 well cell culture plates, most often the latter. With the latter, typically 1 ml of medium inoculated with serum is added to each well, with modulators added at 10× or higher concentration (0.1 ml or less). When comparisons are done in well plates, control wells without any additions are included. Levels were observed microscopically (inverted phase microscope) after incubation, typically at several points in time. The well plate cultures were also used for antibiotic sensitivity testing.
# These procedures are those known in the art and include uses of antibodies and DNA probes, Western and Southern blots, PCR and the diagnostic kits therefor. First, organisms can be quantified by culture. […] If a means is found to immobilize the bacteria to grow isolated colonies, counts will be more accurate. Quantification is used to follow the progress of treatment and to correlate HBB levels with specific disease syndromes. Quantification is used also for antibiotic sensitivity measurements, comparing the level of growth with antibiotic treatment to the level of growth without treatment. Such antibiotic sensitivity measurements establish the basis for the clinical choice of antibiotic drugs.
# yeast-like forms of HBB = assay: Suppression of yeast-like forms of HBB by antifungal agents; assay type: cell-based, human blood bacterium (HBB)
# HBB = assay type: in vivo, human; details: uncontrolled patient trials
# Description: Experiments have been conducted investigating the correlation of the presence of or increased presence of HBB with the clinical symptoms of three autoimmune diseases, and the results of instituting an antibiotic regimen in patients. […] All patients were cultured repeatedly to determine levels of HBB. The antibiotic treatment regimen was based on antibiotic sensitivities done on a pilot series of cultures and on the known properties of the organism, which clearly requires long-term, continuous treatment to address its very slow growth rate. This approach differs from usual treatment regimens for other bacterial infections. Neither the subjects nor the investigators were blind, and there was no untreated or placebo-treated control group.
# Antibiotic treatment consisted of one or more of the following three antibiotic regimens: (1) penicillin V, 500 mg four times a day, plus probenecid, 500 mg four times a day, plus Augmentin 500 mg four times a day; (2) ciprofloxacin, 500 mg three times a day; or (3) isoniazid, 100 mg three times a day. Most patients received a combination of two of the regimens concurrently.
# A regime or schedule is continued to optimize effectiveness, balanced against negative effects of treatment.
# [3] = tested on: extracellular exudate and the bacteria (HBB); assay: Lectin binding to HBB exudate (slime) and bacteria; parameters: species or system human blood bacterium (HBB)
# Excerpt: The amount of the exudate produced is strongly influenced by or dependent upon the composition of the culture medium. The current medium formulae (L and O) have been designed to reduce slime production. In the original, crude medium, a centrifuged culture may consist of more than 10% of this gel by volume. In the L and O media, older cultures of HBB may develop a thin layer of gel that traps the cells and makes them adherent to the culture flask.
molecule,measurement,setting,value
CCCCCCCCCCCCOS(=O)(=O)[O-].[Na+] [SDS],resistance of HBB to detergent (lysis),[1],does cause lysis
CC[C@H]1OC(=O)[C@H](C)[C@@H](O[C@H]2C[C@@](C)(OC)[C@@H](O)[C@H](C)O2)[C@H](C)[C@@H](O[C@@H]2O[C@H](C)C[C@H](N(C)C)[C@H]2O)[C@](C)(OC)C[C@@H](C)C(=O)[C@H](C)[C@@H](O)[C@]1(C)O [clarithromycin],antibiotic sensitivity of HBB strains/isolates in culture,[2]; concentration not printed,some strains show sensitivity; also recorded: often stimulate growth
same,antibiotic sensitivity of HBB strains/isolates in culture,"[2]; concentration not printed, listed as Clarithromycin",appears more effective in culture
Clc1ccccc1C(c1ccccc1)(c1ccccc1)n1ccnc1 [clotrimazol],suppression of yeast-like forms,yeast-like forms of HBB,no suppression
same,"observed antibiotic and antifungal sensitivities (outcome, number of isolates)",[2],no effect (1 isolate)
Cc1onc(-c2ccccc2Cl)c1C(=O)N[C@@H]1C(=O)N2[C@@H]1SC(C)(C)[C@@H]2C(=O)O [cloxacillin],"observed antibiotic and antifungal sensitivities (outcome, number of isolates)",[2]; 2 μg/ml,no effect (16 isolates); also recorded: sensitive (5 isolates); also recorded: growth stimulated (6 isolates)
same,antibiotic sensitivity of HBB strains/isolates in culture,[2]; concentration not printed,occasional isolates show higher sensitivity
Nc1ccc(S(=O)(=O)c2ccc(N)cc2)cc1 [dapsone],"observed antibiotic and antifungal sensitivities (outcome, number of isolates)",[2],no effect (1 isolate)
Cc1onc(-c2c(Cl)cccc2Cl)c1C(=O)N[C@@H]1C(=O)N2[C@@H]1SC(C)(C)[C@@H]2C(=O)O [dicloxacillin],clinical response in patients (in words),HBB,A few patients have done better
CC[C@H]1OC(=O)[C@H](C)[C@@H](O[C@H]2C[C@@](C)(OC)[C@@H](O)[C@H](C)O2)[C@H](C)[C@@H](O[C@@H]2O[C@H](C)C[C@H](N(C)C)[C@H]2O)[C@](C)(O)C[C@@H](C)C(=O)[C@H](C)[C@@H](O)[C@]1(C)O [erythromycin],antibiotic sensitivity of HBB strains/isolates in culture,[2],resistant
Oc1c(Cl)cc(Cl)c(Cl)c1Cc1c(O)c(Cl)cc(Cl)c1Cl [hexachlorophene],resistance of HBB to disinfectant,[1],resistant
CCN(CCO)CCCC(C)Nc1ccnc2cc(Cl)ccc12 (stereo not shown) [hydroxychloroquin],antibiotic sensitivity of HBB strains/isolates in culture,[2]; concentration not printed,synergistic effect with a few isolates
NNC(=O)c1ccncc1 [isoniazid],"observed antibiotic and antifungal sensitivities (outcome, number of isolates)",[2]; 2 μg/ml,no effect (24 isolates); also recorded: sensitive (5 isolates); also recorded: growth stimulated (6 isolates)
same,antibiotic sensitivity of HBB strains/isolates in culture,[2]; concentration not printed,some isolates are sensitive
Clc1ccc(COC(Cn2ccnc2)c2ccc(Cl)cc2Cl)c(Cl)c1 (stereo not shown) [miconazol],suppression of yeast-like forms,yeast-like forms of HBB,no suppression
same,"observed antibiotic and antifungal sensitivities (outcome, number of isolates)",[2],no effect (1 isolate)
CCCCCCCCCCCCN(C)CC(=O)O [n-laurylsarcosine],resistance of HBB to detergent (lysis),[1],resist
CCn1cc(C(=O)O)c(=O)c2ccc(C)nc21 [nalidixic acid],"observed antibiotic and antifungal sensitivities (outcome, number of isolates)",[2]; 4 μg/ml,no effect (1 isolate)
C[C@@H]1[C@H](O)[C@@H](C)/C=C/C=C/CC/C=C/C=C/C=C/C=C/C(O[C@H]2O[C@H](C)[C@@H](O)[C@H](N)[C@@H]2O)CC2O[C@](O)(CC(O)C(O)CCC(O)CC(O)CC(O)CC(=O)O[C@H]1C)CC(O)C2C(=O)O (stereo partly shown) [nystatin],suppression of yeast-like forms,yeast-like forms of HBB,no suppression
same,"observed antibiotic and antifungal sensitivities (outcome, number of isolates)",[2]; saturated,no effect (1 isolate)
Cc1onc(-c2ccccc2)c1C(=O)N[C@@H]1C(=O)N2[C@@H]1SC(C)(C)[C@@H]2C(=O)O [oxacillin],antibiotic sensitivity of HBB strains/isolates in culture,[2],occasional isolates show higher sensitivity
CC1(C)S[C@@H]2[C@H](NC(=O)Cc3ccccc3)C(=O)N2[C@H]1C(=O)O [penicillin G],antibiotic sensitivity of HBB strains/isolates in culture,[2]; concentration not printed,relatively sensitive
CC1(C)S[C@@H]2[C@H](NC(=O)COc3ccccc3)C(=O)N2[C@H]1C(=O)O [penicillin V],"observed antibiotic and antifungal sensitivities (outcome, number of isolates)",[2]; 1-2 μg/ml,no effect (27 isolates); also recorded: sensitive (17 isolates); also recorded: growth stimulated (4 isolates)
same,antibiotic sensitivity of HBB strains/isolates in culture,[2]; concentration not printed,relatively sensitive
COc1cc(NC(C)CCCN)c2ncccc2c1 (stereo not shown) [primaquine],"observed antibiotic and antifungal sensitivities (outcome, number of isolates)",[2],no effect (31 isolates); also recorded: sensitive (15 isolates); also recorded: growth stimulated (1 isolate)
CCN(CC)CCCC(C)Nc1c2ccc(Cl)cc2nc2ccc(OC)cc12 (stereo not shown) [quinacrine],"observed antibiotic and antifungal sensitivities (outcome, number of isolates)",[2],no effect (1 isolate)
O=C([O-])c1ccccc1.[Na+] [sodium benzoate],suppression of yeast-like forms,yeast-like forms of HBB,no suppression
same,"observed antibiotic and antifungal sensitivities (outcome, number of isolates)",[2]; 50 μg/ml,no effect (1 effect)
CCC(=O)[O-].[Na+] [sodium propionate],suppression of yeast-like forms,yeast-like forms of HBB,no suppression
same,"observed antibiotic and antifungal sensitivities (outcome, number of isolates)",[2]; 50-250 μg/ml,no effect (2 isolates)
CCCCCCCCCCC(=O)[O-].[Na+] [sodium undecylate],suppression of yeast-like forms,yeast-like forms of HBB,no suppression
same,"observed antibiotic and antifungal sensitivities (outcome, number of isolates)",[2]; 50 μg/ml,no effect (1 isolate)
Cc1cc(NS(=O)(=O)c2ccc(N)cc2)no1 [sulfamethoxazole],antibiotic sensitivity of HBB strains/isolates in culture,[2],no effect (1 isolate)
Nc1ccc(S(=O)(=O)Nc2ccccn2)cc1 [sulfapyridine],"observed antibiotic and antifungal sensitivities (outcome, number of isolates)",[2],no effect (6 isolates); also recorded: no effect (1 isolate)
O=C(O)c1cc(/N=N/c2ccc(S(=O)(=O)Nc3ccccn3)cc2)ccc1O [sulfasalazine],"observed antibiotic and antifungal sensitivities (outcome, number of isolates)",[2],no effect (6 isolates); also recorded: no effect (isolate)
Cc1cccc(N(C)C(=S)Oc2ccc3ccccc3c2)c1 [tolnaftate],"observed antibiotic and antifungal sensitivities (outcome, number of isolates)",[2]; 2 μg/ml,no effect (1 isolate)
COc1cc(Cc2cnc(N)nc2N)cc(OC)c1OC [trimethoprim],antibiotic sensitivity of HBB strains/isolates in culture,[2],resistance
same,"observed antibiotic and antifungal sensitivities (outcome, number of isolates)",[2],no effect (1 isolate)
CN[C@H](CC(C)C)C(=O)N[C@H]1C(=O)N[C@@H](CC(N)=O)C(=O)N[C@H]2C(=O)N[C@H]3C(=O)N[C@H](C(=O)N[C@H](C(=O)O)c4cc(O)cc(O)c4-c4cc3ccc4O)[C@H](O)c3ccc(c(Cl)c3)Oc3cc2cc(c3O[C@@H]2O[C@H](CO)[C@@H](O)[C@H](O)[C@H]2O[C@H]2C[C@](C)(N)[C@H](O)[C@H](C)O2)Oc2ccc(cc2Cl)[C@H]1O [vancomycin],"observed antibiotic and antifungal sensitivities (outcome, number of isolates)",[2],no effect (1 isolate)
NP-40,resistance of HBB to detergent (lysis),[1],resist
Triton X,resistance of HBB to detergent (lysis),[1],resist
Tween-20,resistance of HBB to detergent (lysis),[1],resist
amphoptericin,suppression of yeast-like forms,yeast-like forms of HBB,no suppression
same,"observed antibiotic and antifungal sensitivities (outcome, number of isolates)",[2]; 0.25 μg/ml,no effect (1 isolate)
benzalkonium chloride,resistance of HBB to disinfectant,[1]; 1:1000,resistant
gentamycin,"observed antibiotic and antifungal sensitivities (outcome, number of isolates)",[2]; 2 μg/ml,no effect (1 isolate)
penicillin,clinical response in patients (in words),HBB,not effective for a sustained response in most patients; also recorded: short-term response in many
wheat germ agglutinin,binding of lectin to exudate and bacteria,[3],bind
B1,binding of lectin to exudate and bacteria,[3],do not appear to bind

# — patent publication US20020155519A1 (priority 1997, published 2002)
